For 16 compounds, IC50 results are on record in patent publication US12351581B2, “Compounds for FGFR inhibition” (Cogent Biosciences, Inc., priority 2023, dated 2025).

Where two headings read alike, the source gives them in different places.

Test [1] addresses T1, FGFR2 V564I (Homo sapiens, UniProt P21802, V564I).
T1 construct: biochemical assays using purified intracellular domains of the respective isoforms; purchased Carna Bioscience 08-546
The experiment in a line: FGFR mutant enzyme assay (HTRF KinEASE-TK). The class given is biochemical. Particulars: ATP 0.4 uM. In short, it runs like this:
(§1)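 Purified intracellular kinase domains, enzyme pre-incubated 30 min with compound (11-point 1:3 dilutions, typically 10,000-0.17 nM), then ATP plus 0.5 uM TK-peptide, 60 min at room temperature in HEPES pH7.5 with Mg2+/Mn2+. HTRF 665/615 ratio converted to percent of control; IC50 from four-parameter logistic fit.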
(In general: In TR-FRET formats the signal depends on donor and acceptor labels being close together.)

Test [2] deals with T2, FGFR2 N549H (Homo sapiens, UniProt P21802, N549H).
T2 construct: biochemical assays using purified intracellular domains of the respective isoforms; purchased Carna Bioscience 08-532
T2 sequence (P21802 399-821 N549H limits assumed): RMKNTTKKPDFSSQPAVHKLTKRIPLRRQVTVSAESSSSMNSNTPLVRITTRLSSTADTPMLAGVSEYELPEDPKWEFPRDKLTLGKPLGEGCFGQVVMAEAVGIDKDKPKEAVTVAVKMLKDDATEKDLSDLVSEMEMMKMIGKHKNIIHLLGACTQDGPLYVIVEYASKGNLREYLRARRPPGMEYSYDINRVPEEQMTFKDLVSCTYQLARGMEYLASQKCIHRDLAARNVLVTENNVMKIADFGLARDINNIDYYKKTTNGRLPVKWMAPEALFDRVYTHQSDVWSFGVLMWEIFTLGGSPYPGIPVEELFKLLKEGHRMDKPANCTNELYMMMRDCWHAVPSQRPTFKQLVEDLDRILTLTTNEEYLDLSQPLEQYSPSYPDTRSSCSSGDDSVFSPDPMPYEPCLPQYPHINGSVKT
Kind of test: FGFR mutant enzyme assay (HTRF KinEASE-TK). The class given is biochemical. To be noted: ATP 0.9 uM. In short, it runs like this:
as §1

The target of test [3] is T3, FGFR2 V564F (Homo sapiens, UniProt P21802, V564F).
T3 construct: biochemical assays using purified intracellular domains of the respective isoforms; purchased SignalChem Biotech F05-12FG
T3 sequence (P21802 399-821 V564F limits assumed): as the sequence (P21802 399-821 N549H limits assumed) above, with H151N, V166F counted along it
The experiment in a line: FGFR mutant enzyme assay (HTRF KinEASE-TK). To be noted: ATP 1.5 uM. The class given is biochemical. In short, it runs like this:
as §1

Test [4] has as its target T4, FGFR2 (Homo sapiens, UniProt P21802).
T4 construct: biochemical assays using purified intracellular domains of the respective isoforms; purchased Carna Bioscience 08-134
The experiment in a line: FGFR wild type enzyme assay (HTRF KinEASE-TK). The format is biochemical. Particulars: ATP 2 uM. An outline of the steps:
as §1

The target of test [5] is FGFR2-WT (Homo sapiens, UniProt P21802). The experiment in a line: Phosphorylated FGFR2-WT (pFGFR2-WT) cell assay, KATOIII cells. The class given is cell-based. To be noted: 1 hour incubation, phospho FGFR2 HTRF. In short, it runs like this:
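KATOIII cells treated 1 h at 37 °C with threefold compound dilutions (10 μM to 0.5 nM). Lysate phospho-FGFR2 (Tyr653/654) read by HTRF.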

The mark [6] stands for this setting: compound table after the examples, read-out: Enz FGFR2.

T1 sequence (P21802 399-821 V564I limits assumed): as the sequence (P21802 399-821 N549H limits assumed) above, with H151N, V166I counted along it
T4 sequence (P21802 399-821 limits assumed): as the sequence (P21802 399-821 N549H limits assumed) above, with H151N counted along it
Chain of FGFR2-WT (P21802 430-767 limits assumed): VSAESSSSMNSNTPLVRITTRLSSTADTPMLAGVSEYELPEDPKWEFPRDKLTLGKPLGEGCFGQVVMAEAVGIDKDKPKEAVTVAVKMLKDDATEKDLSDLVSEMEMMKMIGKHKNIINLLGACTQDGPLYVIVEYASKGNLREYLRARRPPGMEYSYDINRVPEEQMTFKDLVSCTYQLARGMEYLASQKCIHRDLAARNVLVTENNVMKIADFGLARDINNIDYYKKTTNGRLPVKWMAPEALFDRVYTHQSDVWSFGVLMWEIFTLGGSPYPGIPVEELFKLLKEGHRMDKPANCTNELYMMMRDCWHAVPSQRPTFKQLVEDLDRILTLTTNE

In the case of `Cc1c(-c2cc(O[C@H](C)c3ccc(F)cn3)c3c(C#N)cnn3c2)cnn1C1CCN(C(=O)C2(N)CCC2)CC1` [Compound 43, (R)-6-(1-(1-(1-aminocyclobutane-1-carbonyl)piperidin-4-yl)-5-methyl-1H-pyrazol-4-yl)-4-(1-(5-fluoropyridin-2-yl)ethoxy)pyrazolo[1,5-a]pyridine-3-carbonitrile], the IC50 in test [1] is 3 nM; in test [2] it was 1 nM; in test [3] it was 3 nM; in test [4] (Table 3, read-out: FGFR2 Enz), 1 nM; in test [4] (setting [6]), 1 nM; in test [5] it was 9 nM.
On to `Cc1c(-c2cc(O[C@H](C)c3ccc(F)cn3)c3c(C#N)cnn3c2)cnn1C1CCN(C(=O)[C@@H](N)C(C)C)CC1` [Compound 44, 6-(1-(1-(L-valyl)piperidin-4-yl)-5-methyl-1H-pyrazol-4-yl)-4-((R)-1-(5-fluoropyridin-2-yl)ethoxy)pyrazolo[1,5-a]pyridine-3-carbonitrile], for which the IC50 is 1.5 nM in test [1]; 0.4 nM in test [2]; 1 nM in test [3]; 0.5 nM in test [4] (Table 3, read-out: FGFR2 Enz); 0.5 nM in test [4] (setting [6]); 8 nM in test [5].
For `Cc1c(-c2cc(O[C@@H](C)c3ccc(F)cn3)c3c(C#N)cnn3c2)cnn1[C@H]1CC[C@H](O)CC1` [Compound 45, 4-((S)-1-(5-fluoropyridin-2-yl)ethoxy)-6-(1-((1r,4S)-4-hydroxycyclohexyl)-5-methyl-1H-pyrazol-4-yl)pyrazolo[1,5-a]pyridine-3-carbonitrile], the IC50 was found to be 23 nM in test [1]; 7 nM in test [2]; 13 nM in test [3]; 6.5 nM in test [4] (Table 3, read-out: FGFR2 Enz); 6.5 nM in test [4] (setting [6]); 60 nM in test [5].
For `Cc1c(-c2cc(O[C@H](C)c3ccc(F)cn3)c3c(C#N)cnn3c2)cnn1[C@H]1CC[C@@H](O)CC1` [Compound 46, 4-((R)-1-(5-fluoropyridin-2-yl)ethoxy)-6-(1-((1s,4S)-4-hydroxycyclohexyl)-5-methyl-1H-pyrazol-4-yl)pyrazolo[1,5-a]pyridine-3-carbonitrile], the IC50 stood at 1 nM in test [1]; 0.3 nM in test [2]; 1 nM in test [3]; 0.3 nM in test [4] (Table 3, read-out: FGFR2 Enz); 0.3 nM in test [4] (setting [6]); 3 nM in test [5].
For `C[C@@H](Oc1cc(-c2cnn(C3CCN(C#N)CC3)c2N)cn2ncc(C#N)c12)c1ccc(F)cn1` [Compound 47, (R)-6-(5-amino-1-(1-cyanopiperidin-4-yl)-1H-pyrazol-4-yl)-4-(1-(5-fluoropyridin-2-yl)ethoxy)pyrazolo[1,5-a]pyridine-3-carbonitrile], the IC50 in test [1] is 1 nM; in test [2] it was 0.4 nM; in test [3] it was 1 nM; in test [4] (Table 3, read-out: FGFR2 Enz) it was 0.3 nM; in test [4] (setting [6]), 0.3 nM; in test [5], 4 nM.
On to `Cc1c(-c2cc(O[C@H](C)c3ccc(F)cn3)c3c(C#N)cnn3c2)cnn1[C@H]1CCCN(C(=O)[C@@H](C)O)C1` [Compound 48, 4-((R)-1-(5-fluoropyridin-2-yl)ethoxy)-6-(1-((S)-1-((R)-2-hydroxypropanoyl)piperidin-3-yl)-5-methyl-1H-pyrazol-4-yl)pyrazolo[1,5-a]pyridine-3-carbonitrile], for which the IC50 in test [1] came out at 1 nM; in test [2], 0.4 nM; in test [3], 1 nM; in test [4] (Table 3, read-out: FGFR2 Enz), 0.4 nM; in test [4] (setting [6]), 0.4 nM; in test [5], 3 nM.
With `Cc1c(-c2cc(O[C@H](C)c3ccc(F)cn3)c3c(C#N)cnn3c2)cnn1[C@@H]1CCCN(C(=O)[C@H](C)O)C1` [Compound 49, 4-((R)-1-(5-fluoropyridin-2-yl)ethoxy)-6-(1-((R)-1-((S)-2-hydroxypropanoyl)piperidin-3-yl)-5-methyl-1H-pyrazol-4-yl)pyrazolo[1,5-a]pyridine-3-carbonitrile], the IC50 in test [1] was 10 nM; in test [2] it was 3 nM; in test [3], 8 nM; in test [4] (Table 3, read-out: FGFR2 Enz), 2.6 nM; in test [4] (setting [6]), 2.6 nM; in test [5], 15 nM.
`Cc1c(-c2cc(O[C@@H](C)c3ccc(F)cn3)c3c(C#N)cnn3c2)cnn1[C@H]1CC[C@@H](O)CC1` [Compound 50, 4-((S)-1-(5-fluoropyridin-2-yl)ethoxy)-6-(1-((1s,4R)-4-hydroxycyclohexyl)-5-methyl-1H-pyrazol-4-yl)pyrazolo[1,5-a]pyridine-3-carbonitrile]: the IC50 in test [1] was 20 nM; in test [2], 6 nM; in test [3], 11 nM; in test [4] (Table 3, read-out: FGFR2 Enz), 5.5 nM; in test [4] (setting [6]) it was 5.5 nM; in test [5], 57 nM.
Turning to `Cc1c(-c2cc(OC(C)c3ccc(F)cn3)c3c(C#N)cnn3c2)cnn1[C@H]1CC[C@H](O)CC1` (stereo partly drawn) [Compound 51, 4-(1-(5-fluoropyridin-2-yl)ethoxy)-6-(1-((1r,4r)-4-hydroxycyclohexyl)-5-methyl-1H-pyrazol-4-yl)pyrazolo[1,5-a]pyridine-3-carbonitrile], the IC50 in test [1] stood at 4 nM; in test [2], 1 nM; in test [3], 2 nM; in test [4] (Table 3, read-out: FGFR2 Enz), 1 nM; in test [4] (setting [6]) it was 1 nM; in test [5], 6.5 nM.
Regarding `Cc1c(-c2cc(OC(C)c3ccc(F)cn3)c3c(C#N)cnn3c2)cnn1[C@H]1CC[C@@H](O)CC1` (stereo partly drawn) [Compound 52, 4-(1-(5-fluoropyridin-2-yl)ethoxy)-6-(1-((1s,4s)-4-hydroxycyclohexyl)-5-methyl-1H-pyrazol-4-yl)pyrazolo[1,5-a]pyridine-3-carbonitrile], the IC50 in test [1] turned out to be 3 nM; in test [2], 1 nM; in test [3], 2.4 nM; in test [4] (Table 3, read-out: FGFR2 Enz), 0.7 nM; in test [4] (setting [6]), 0.7 nM; in test [5], 6 nM.
On to `Cc1c(-c2cc(O[C@H](C)c3ccc(F)cn3)c3c(C#N)cnn3c2)cnn1[C@H]1CC[C@H](OC(=O)[C@@H](N)C(C)C)CC1` [Compound 53, (1R,4S)-4-(4-(3-cyano-4-((R)-1-(5-fluoropyridin-2-yl)ethoxy)pyrazolo[1,5-a]pyridin-6-yl)-5-methyl-1H-pyrazol-1-yl)cyclohexyl L-valinate], for which the IC50 in test [1] came out at 1.5 nM; in test [2], 0.5 nM; in test [3], 1 nM; in test [4] (Table 3, read-out: FGFR2 Enz), 0.3 nM; in test [4] (setting [6]) it was 0.3 nM; in test [5] it was 3 nM.
For the compound `Cc1c(-c2cc(O[C@H](C)c3cccnc3)c3c(C#N)cnn3c2)cnn1[C@H]1CC[C@H](O)CC1` [Compound 54, 6-(1-((1r,4R)-4-hydroxycyclohexyl)-5-methyl-1H-pyrazol-4-yl)-4-((R)-1-(pyridin-3-yl)ethoxy)pyrazolo[1,5-a]pyridine-3-carbonitrile], the IC50 in test [1] was found to be 1 nM; in test [2] it was 0.5 nM; in test [3], 1 nM; in test [4] (Table 3, read-out: FGFR2 Enz), 0.4 nM; in test [4] (setting [6]), 0.4 nM; in test [5] it was 12 nM.
In the case of `C[C@@H](Oc1cc(-c2cnn([C@H]3CC[C@H](O)CC3)c2)cn2ncc(C#N)c12)c1ccc(F)cn1` [Compound 55, 4-((R)-1-(5-fluoropyridin-2-yl)ethoxy)-6-(1-((1r,4R)-4-hydroxycyclohexyl)-1H-pyrazol-4-yl)pyrazolo[1,5-a]pyridine-3-carbonitrile], the IC50 is 0.6 nM in test [1]; 0.13 nM in test [2]; 0.3 nM in test [3]; 0.2 nM in test [4] (Table 3, read-out: FGFR2 Enz); 0.2 nM in test [4] (setting [6]); 1.6 nM in test [5].
Turning to `C[C@@H](Oc1cc(-c2ccc(N3CCC(O)CC3)nc2)cn2ncc(C#N)c12)c1ccc(F)cn1` [Compound 56, (R)-4-(1-(5-fluoropyridin-2-yl)ethoxy)-6-(6-(4-hydroxypiperidin-1-yl)pyridin-3-yl)pyrazolo[1,5-a]pyridine-3-carbonitrile], the IC50 in test [1] worked out at 1 nM; in test [2], 0.2 nM; in test [3] it was 0.6 nM; in test [4] (Table 3, read-out: FGFR2 Enz), 0.2 nM; in test [4] (setting [6]), 0.2 nM; in test [5], 3.4 nM.
In the case of `CN=S1(=O)CCC(n2cc(-c3cc(O[C@H](C)c4ccc(F)cn4)c4c(C#N)cnn4c3)cn2)CC1` (stereo partly drawn) [Compound 58, (R)-4-(1-(5-fluoropyridin-2-yl)ethoxy)-6-(1-(1-(methylimino)-1-oxidohexahydro-116-thiopyran-4-yl)-1H-pyrazol-4-yl)pyrazolo[1,5-a]pyridine-3-carbonitrile], the IC50 in test [1] was 1 nM; in test [2] it was 0.15 nM; in test [3], 0.45 nM; in test [4] (Table 3, read-out: FGFR2 Enz), 0.15 nM; in test [4] (setting [6]) it was 0.15 nM; in test [5] it was 1.6 nM.
With `Cc1c(-c2cc(O[C@H](C)c3ccc(F)cn3)c3c(C#N)cnn3c2)nnn1[C@H]1CC[C@H](O)CC1` [Compound 59, 4-((R)-1-(5-fluoropyridin-2-yl)ethoxy)-6-(1-((1r,4R)-4-hydroxycyclohexyl)-5-methyl-1H-1,2,3-triazol-4-yl)pyrazolo[1,5-a]pyridine-3-carbonitrile], the IC50 in test [1] worked out at 3 nM; in test [2], 1 nM; in test [3] it was 3 nM; in test [4] (Table 3, read-out: FGFR2 Enz), 0.5 nM; in test [4] (setting [6]) it was 0.5 nM; in test [5] it was 5.7 nM.
